One assay addresses T1, PRMT7 (Homo sapiens, UniProt Q9NVM4).
T1 sequence (Q9NVM4 1-692): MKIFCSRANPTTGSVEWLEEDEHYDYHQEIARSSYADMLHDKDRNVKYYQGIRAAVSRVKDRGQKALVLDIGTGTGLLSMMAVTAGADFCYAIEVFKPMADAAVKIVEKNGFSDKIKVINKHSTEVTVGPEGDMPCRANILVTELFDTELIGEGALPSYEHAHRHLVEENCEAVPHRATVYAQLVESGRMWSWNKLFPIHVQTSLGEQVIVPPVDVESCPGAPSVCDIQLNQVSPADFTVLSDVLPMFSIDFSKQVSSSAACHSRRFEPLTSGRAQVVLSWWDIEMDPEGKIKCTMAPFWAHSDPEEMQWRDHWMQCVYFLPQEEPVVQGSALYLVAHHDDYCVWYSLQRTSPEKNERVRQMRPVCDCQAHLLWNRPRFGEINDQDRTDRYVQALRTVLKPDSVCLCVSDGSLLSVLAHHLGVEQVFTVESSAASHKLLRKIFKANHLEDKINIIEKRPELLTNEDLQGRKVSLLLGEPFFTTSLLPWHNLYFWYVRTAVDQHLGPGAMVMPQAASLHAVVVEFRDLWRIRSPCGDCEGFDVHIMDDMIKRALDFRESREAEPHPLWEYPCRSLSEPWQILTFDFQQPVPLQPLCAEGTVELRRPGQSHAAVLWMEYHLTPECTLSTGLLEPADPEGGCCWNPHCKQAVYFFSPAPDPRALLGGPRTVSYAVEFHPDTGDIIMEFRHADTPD
The experiment in a line: radiometric SPA methyltransferase assay (negative control compound, weak). In kind it is biochemical.

The target in the next assay is T2, BCDIN3D (Homo sapiens, UniProt Q7Z5W3).
T2 sequence (Q7Z5W3 1-292): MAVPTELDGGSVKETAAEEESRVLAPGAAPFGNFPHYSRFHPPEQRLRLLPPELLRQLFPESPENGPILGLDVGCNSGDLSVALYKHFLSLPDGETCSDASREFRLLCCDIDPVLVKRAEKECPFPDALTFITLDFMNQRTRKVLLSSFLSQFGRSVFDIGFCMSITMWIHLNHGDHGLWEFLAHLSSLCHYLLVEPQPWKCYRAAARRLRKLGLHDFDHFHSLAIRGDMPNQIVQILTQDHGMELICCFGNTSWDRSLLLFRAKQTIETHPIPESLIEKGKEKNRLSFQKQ
The experiment in a line: biochemical. Also on record: radiometric methyltransferase assay with tritiated SAM, IC50.

Another assay concerns the target DOT1L (Homo sapiens, UniProt Q8TEK3). The experiment in a line: biochemical. Also on record: radiometric methyltransferase assay with tritiated SAM, IC50.
In a further assay the target is PRMT1 (Homo sapiens, UniProt Q99873). The experiment in a line: biochemical. Also on record: radiometric methyltransferase assay with tritiated SAM, IC50.
A further assay has as its target PRMT6 (Homo sapiens, UniProt Q96LA8). As to the kind of experiment: biochemical. Also on record: radiometric methyltransferase assay with tritiated SAM, IC50.
Another assay deals with T3, PRMT9 (Homo sapiens, UniProt Q6P2P2).
T3 sequence (Q6P2P2 1-845): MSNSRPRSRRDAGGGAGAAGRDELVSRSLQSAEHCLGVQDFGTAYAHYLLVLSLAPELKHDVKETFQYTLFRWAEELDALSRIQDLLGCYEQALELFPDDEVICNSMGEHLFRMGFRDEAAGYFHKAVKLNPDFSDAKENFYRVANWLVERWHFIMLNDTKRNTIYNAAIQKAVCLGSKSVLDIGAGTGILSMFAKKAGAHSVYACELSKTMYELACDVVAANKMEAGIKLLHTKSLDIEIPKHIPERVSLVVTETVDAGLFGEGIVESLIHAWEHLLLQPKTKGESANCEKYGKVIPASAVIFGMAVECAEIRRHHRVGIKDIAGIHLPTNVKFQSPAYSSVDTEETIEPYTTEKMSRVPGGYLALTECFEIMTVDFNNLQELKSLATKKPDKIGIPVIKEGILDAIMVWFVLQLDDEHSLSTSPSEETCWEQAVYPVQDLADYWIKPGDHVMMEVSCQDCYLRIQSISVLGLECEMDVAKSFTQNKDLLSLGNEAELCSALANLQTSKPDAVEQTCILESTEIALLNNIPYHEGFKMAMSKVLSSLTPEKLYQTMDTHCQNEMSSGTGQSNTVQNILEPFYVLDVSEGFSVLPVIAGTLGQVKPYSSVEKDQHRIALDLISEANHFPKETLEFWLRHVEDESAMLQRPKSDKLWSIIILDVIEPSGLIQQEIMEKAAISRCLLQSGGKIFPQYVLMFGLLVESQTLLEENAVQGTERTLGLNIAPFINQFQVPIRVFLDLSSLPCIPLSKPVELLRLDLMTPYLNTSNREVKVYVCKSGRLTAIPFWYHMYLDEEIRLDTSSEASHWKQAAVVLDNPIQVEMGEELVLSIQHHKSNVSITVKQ
As to the kind of experiment: biochemical. More on the design: radiometric methyltransferase assay with tritiated SAM, IC50.

Structures are written as SMILES.

DOT1L, sequence (Q8TEK3 whole entry): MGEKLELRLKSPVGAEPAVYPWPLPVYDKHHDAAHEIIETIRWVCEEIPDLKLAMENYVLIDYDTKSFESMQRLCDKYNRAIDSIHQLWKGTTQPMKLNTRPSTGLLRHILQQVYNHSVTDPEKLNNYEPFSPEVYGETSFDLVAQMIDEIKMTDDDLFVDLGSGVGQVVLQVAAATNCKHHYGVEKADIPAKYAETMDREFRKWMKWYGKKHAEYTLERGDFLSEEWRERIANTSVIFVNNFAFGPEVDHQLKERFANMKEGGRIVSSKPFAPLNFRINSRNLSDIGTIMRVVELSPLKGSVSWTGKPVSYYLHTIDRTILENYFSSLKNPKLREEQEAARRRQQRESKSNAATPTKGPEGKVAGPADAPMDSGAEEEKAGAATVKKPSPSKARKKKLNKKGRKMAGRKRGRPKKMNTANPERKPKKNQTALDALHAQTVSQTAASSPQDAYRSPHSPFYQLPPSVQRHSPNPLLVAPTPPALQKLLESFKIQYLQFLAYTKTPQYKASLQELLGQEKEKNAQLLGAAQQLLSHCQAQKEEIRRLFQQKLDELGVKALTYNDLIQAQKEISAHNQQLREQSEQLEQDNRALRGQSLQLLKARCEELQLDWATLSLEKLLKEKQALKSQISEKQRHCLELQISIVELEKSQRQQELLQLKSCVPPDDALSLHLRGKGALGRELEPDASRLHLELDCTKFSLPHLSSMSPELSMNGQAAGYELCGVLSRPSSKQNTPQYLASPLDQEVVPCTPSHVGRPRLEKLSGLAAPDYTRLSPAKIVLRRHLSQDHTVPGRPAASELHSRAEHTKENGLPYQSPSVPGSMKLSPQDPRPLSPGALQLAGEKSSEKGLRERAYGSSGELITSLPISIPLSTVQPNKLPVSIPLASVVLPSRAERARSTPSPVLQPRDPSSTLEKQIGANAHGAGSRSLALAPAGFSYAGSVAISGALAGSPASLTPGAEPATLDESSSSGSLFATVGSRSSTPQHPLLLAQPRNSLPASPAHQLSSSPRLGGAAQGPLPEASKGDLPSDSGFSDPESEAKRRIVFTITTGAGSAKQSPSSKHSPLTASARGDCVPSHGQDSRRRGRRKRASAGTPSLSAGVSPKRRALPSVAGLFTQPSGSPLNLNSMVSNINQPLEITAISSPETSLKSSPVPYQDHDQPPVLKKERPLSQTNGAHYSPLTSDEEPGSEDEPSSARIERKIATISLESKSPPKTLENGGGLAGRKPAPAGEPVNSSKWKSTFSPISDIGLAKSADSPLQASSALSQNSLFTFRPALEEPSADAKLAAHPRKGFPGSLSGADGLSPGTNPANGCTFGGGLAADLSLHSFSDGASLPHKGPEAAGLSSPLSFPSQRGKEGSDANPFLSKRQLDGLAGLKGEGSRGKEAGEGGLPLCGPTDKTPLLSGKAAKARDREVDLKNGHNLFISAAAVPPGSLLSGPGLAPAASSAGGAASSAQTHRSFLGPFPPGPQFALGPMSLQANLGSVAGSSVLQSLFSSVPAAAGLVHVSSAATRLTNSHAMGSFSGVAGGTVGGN
PRMT6, sequence (Q96LA8 whole entry): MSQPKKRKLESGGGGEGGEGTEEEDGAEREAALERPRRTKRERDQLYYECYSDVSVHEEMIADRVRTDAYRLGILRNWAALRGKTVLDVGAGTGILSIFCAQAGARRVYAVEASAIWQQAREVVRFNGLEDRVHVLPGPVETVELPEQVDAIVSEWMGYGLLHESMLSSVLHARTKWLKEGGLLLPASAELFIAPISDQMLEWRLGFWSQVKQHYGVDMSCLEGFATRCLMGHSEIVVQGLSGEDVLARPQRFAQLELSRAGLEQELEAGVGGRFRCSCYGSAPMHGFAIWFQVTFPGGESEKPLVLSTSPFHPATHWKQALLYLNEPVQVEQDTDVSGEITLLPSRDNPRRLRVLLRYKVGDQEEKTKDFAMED
PRMT1, sequence (Q99873 whole entry): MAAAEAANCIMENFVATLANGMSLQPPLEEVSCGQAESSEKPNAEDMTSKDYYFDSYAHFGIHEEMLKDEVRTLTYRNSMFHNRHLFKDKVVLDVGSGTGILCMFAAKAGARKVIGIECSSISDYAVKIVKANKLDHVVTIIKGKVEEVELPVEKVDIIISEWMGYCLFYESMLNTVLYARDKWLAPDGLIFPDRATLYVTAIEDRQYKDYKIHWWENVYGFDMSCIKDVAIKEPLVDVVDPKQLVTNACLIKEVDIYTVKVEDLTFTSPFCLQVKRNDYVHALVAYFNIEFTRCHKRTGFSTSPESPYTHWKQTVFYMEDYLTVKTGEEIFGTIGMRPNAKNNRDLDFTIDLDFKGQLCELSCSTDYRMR

By IC50 is commonly meant the concentration needed to halve the response being measured. Compound `CC1(C)O[C@@H]2[C@H](O1)[C@@H](CSCCCCNCc1cccc(-c3ccc(Cl)cc3)c1)O[C@H]2n1cnc2c(N)ncnc21` [SGC8158N] came in with an IC50 on PRMT7 of 14 ± 2 µM.
In the case of `Nc1ncnc2c1ncn2[C@@H]1O[C@H](CSCCCCNCc2cccc(-c3ccc(Cl)cc3)c2)[C@@H](O)[C@H]1O` [SGC8158], the IC50 on BCDIN3D was determined as 1.1 µM; at DOT1L, 1.7 µM; on PRMT1, 12 µM; against PRMT6 it was 15 µM; at PRMT9, 0.16 µM.
